Assay results published in the supplement of paper PMC6045584.
± gives the standard deviation of the averaged measurements.

Assays:
OSI-906 [1] = compound: T1, C[C@]1(O)C[C@@H](c2nc(-c3ccc4ccc(-c5ccccc5)nc4c3)c3c(N)nccn32)C1 [OSI-906]; experiment: surviving fraction relative to DMSO-only wells; higher = less growth inhibition; settings: exposure time: 5 days
In short: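 Luminescence normalised to the median of DMSO-only wells defines surviving fraction, with viability read by CellTiter-Glo. Signal was recorded after 10 minutes at room temperature, once log-phase tumour cell lines seeded at 250–500 cells per well in 384-well plates had spent 24 hours settling and then five days under continuous exposure to inhibitors at 0.5, 1, 5, 10, 50, 100, 500 and 1000 nM.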

[2] = compound: CC(=O)NCC(=O)N1[C@@H]2CC[C@H]1c1ccc(Nc3ncc(C(F)(F)F)c(NC4CCC4)n3)cc12; experiment: area under dose-response curve of surviving fraction (unscaled, Aref=0) (surviving fraction x log10(nM)); higher = more resistant; settings: exposure time: 5 days; dose range 0.5-1000 nM
In short: (§1)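 Tumour cell lines in 384-well plates were exposed to eight inhibitor concentrations, from 0.5 to 1000 nM, for five days, and viability was read by CellTiter-Glo luminescence in three screens per line. Signals were normalised to DMSO-only wells, and 3-parameter logistic regression in the drc R package fitted dose-response survival curves to the surviving fractions. Area under the curve is given as the unscaled activity area. That area is taken over log10 dose with Aref = 0.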

PACLITAXEL = compound: CC(=O)O[C@H]1C(=O)[C@@]2(C)[C@H]([C@H](OC(=O)c3ccccc3)[C@]3(O)C[C@H](OC(=O)[C@H](O)[C@@H](NC(=O)c4ccccc4)c4ccccc4)C(C)=C1C3(C)C)[C@]1(OC(C)=O)CO[C@@H]1C[C@@H]2O [PACLITAXEL]; experiment: as above; settings: exposure time: 5 days; dose range 0.5-1000 nM
In short: as §1

[3] = compound: CC(=O)c1c(C)c2cnc(Nc3ccc(N4CCNCC4)cn3)nc2n(C2CCCC2)c1=O; experiment: as above; settings: exposure time: 5 days; dose range 0.5-1000 nM
In short: as §1

CAMPTOTHECIN = compound: CC[C@@]1(O)C(=O)OCc2c1cc1n(c2=O)Cc2cc3ccccc3nc2-1 [CAMPTOTHECIN]; experiment: as above; settings: exposure time: 5 days; dose range 0.5-1000 nM
In short: as §1

YM155 = compound: COCC[n+]1c2c(n(Cc3cnccn3)c1C)C(=O)c1ccccc1C2=O [YM155]; experiment: as above; settings: exposure time: 5 days; dose range 0.5-1000 nM
In short: as §1

GEFITINIB = compound: COc1cc2ncnc(Nc3ccc(F)c(Cl)c3)c2cc1OCCCN1CCOCC1 [GEFITINIB]; experiment: as above; settings: exposure time: 5 days; dose range 0.5-1000 nM
In short: as §1

OSI-906 [4] = compound: T1, OSI-906; experiment: as above; settings: exposure time: 5 days; dose range 0.5-1000 nM
In short: as §1

CELECOXIB = compound: Cc1ccc(-c2cc(C(F)(F)F)nn2-c2ccc(S(N)(=O)=O)cc2)cc1 [CELECOXIB]; experiment: as above; settings: exposure time: 5 days; dose range 0.5-1000 nM
In short: as §1

CARBOPLATIN = compound: O=C(O)C1(C(=O)O)CCC1.[NH2-].[NH2-].[Pt+2] [CARBOPLATIN]; experiment: as above; settings: exposure time: 5 days; dose range 0.5-1000 nM
In short: as §1

Row | Test System | surviving fraction (OSI-906 [1]; 0.5 nM) | surviving fraction (OSI-906 [1]; 1 nM) | surviving fraction (OSI-906 [1]; 5 nM) | surviving fraction (OSI-906 [1]; 10 nM) | surviving fraction (OSI-906 [1]; 50 nM) | surviving fraction (OSI-906 [1]; 100 nM) | surviving fraction (OSI-906 [1]; 500 nM) | surviving fraction (OSI-906 [1]; 1000 nM) | area under dose-response curve [2] | area under dose-response curve (PACLITAXEL) | area under dose-response curve [3] | area under dose-response curve (CAMPTOTHECIN) | area under dose-response curve (YM155) | area under dose-response curve (GEFITINIB) | area under dose-response curve (OSI-906 [4]) | area under dose-response curve (CELECOXIB) | area under dose-response curve (CARBOPLATIN)
1 | SYO1 SYNOVIAL | 0.795 ± 0.048 | 0.814 ± 0.044 | 0.832 ± 0.023 | 0.824 ± 0.058 | 0.838 ± 0.055 | 0.897 ± 0.033 | 0.897 ± 0.034 | 0.873 ± 0.016 | 1.98 | 0.539 | 3.14 | 0.528 | 1.25 | 3.17 | 2.64 | 3.18 | 3.25
2 | HOS BONE | 0.9287 ± 0.0055 | 0.9223 ± 0.0065 | 0.939 ± 0.019 | 0.911 ± 0.014 | 0.965 ± 0.02 | 0.963 ± 0.013 | 0.901 ± 0.013 | 0.88 ± 0.031 | 2.69 | 0.728 | 3.47 | 1.25 | 0.418 | 3.42 | 3.06 | 3.42 | 3.54
3 | HOSMNG BONE | 0.94 ± 0.099 | 0.941 ± 0.076 | 0.948 ± 0.06 | 0.98 ± 0.062 | 0.854 ± 0.086 | 0.993 ± 0.1 | 0.957 ± 0.056 | 1 ± 0.032 | 2.83 | 1.85 | 3.41 | 1.82 | 1.76 | 3.45 | 3.13 | 3.18 | 3.65
4 | HCT15 LARGE INTESTINE | 0.829 ± 0.073 | 0.82 ± 0.048 | 0.811 ± 0.069 | 0.871 ± 0.086 | 0.929 ± 0.061 | 0.918 ± 0.023 | 0.911 ± 0.073 | 0.921 ± 0.04 | 2.05 | 1.76 | 3.59 | 0.543 | 2.03 | 3.44 | 2.9 | 3.49 | 3.51
5 | MDAMB134 BREAST | 0.667 ± 0.12 | 0.797 ± 0.014 | 0.679 ± 0.039 | 0.627 ± 0.037 | 0.732 ± 0.016 | 0.72 ± 0.0071 | 0.587 ± 0.016 | 0.616 ± 0.088 | 3.57 | 2.33 | 3.84 | 2.11 | 2.43 | 3.62 | 2.32 | 3.59 | 3.15
6 | MHM BONE | 0.996 ± 0.021 | 0.978 ± 0.026 | 1.03 ± 0.025 | 0.999 ± 0.032 | 0.91 ± 0.05 | 0.872 ± 0.013 | 0.78 ± 0.022 | 0.721 ± 0.018 | 3.12 | 1.43 | 3.35 | 2.08 | 1.94 | 3.37 | 3.03 | 3.42 | 3.46
7 | SUM149 BREAST | 0.923 ± 0.08 | 0.951 ± 0.079 | 0.839 ± 0.035 | 0.79 ± 0.035 | 0.827 ± 0.2 | 0.782 ± 0.082 | 0.581 ± 0.078 | 0.553 ± 0.034 | 2.36 | 0.407 | 3.23 | – | 1.31 | 2.81 | 2.61 | 3.68 | 3.13
8 | COLO320DM LARGE INTESTINE | 1.03 ± 0.099 | 1.09 ± 0.065 | 1.09 ± 0.023 | 1.01 ± 0.049 | 0.875 ± 0.04 | 0.818 ± 0.076 | 0.572 ± 0.048 | 0.528 ± 0.032 | 2.35 | 2.1 | 3.25 | 1.14 | 2.37 | 4.07 | 3 | 3.75 | 4.1
9 | HCC1806 BREAST | 0.722 ± 0.032 | 0.721 ± 0.093 | 0.783 ± 0.11 | 0.822 ± 0.03 | 0.962 ± 0.077 | 1.07 ± 0.064 | 0.883 ± 0.04 | 0.826 ± 0.036 | 2.62 | 0.267 | 3.44 | 0.682 | 1.02 | 2.94 | 2.83 | 3.65 | 3.64
10 | SAOS2 BONE | 0.82 ± 0.027 | 0.858 ± 0.013 | 0.804 ± 0.085 | 0.838 ± 0.045 | 1.06 ± 0.018 | 0.877 ± 0.066 | 0.594 ± 0.016 | 0.522 ± 0.057 | 2.47 | 1.1 | 3.65 | 1.2 | 1.05 | 3.62 | 2.83 | 3.78 | 3.68
11 | SG43 HEADNECK | 1.21 ± 0.074 | 1.18 ± 0.13 | 0.829 ± 0.025 | 0.987 ± 0.12 | 0.695 ± 0.051 | 0.665 ± 0.06 | 0.697 ± 0.021 | 0.614 ± 0.021 | 2.61 | 1.9 | 2.84 | 2.21 | 2.35 | 2.21 | 2.7 | 3.37 | 3.37
12 | KPD BONE | 0.958 ± 0.037 | 0.978 ± 0.051 | 0.9457 ± 0.0072 | 0.952 ± 0.097 | 0.796 ± 0.018 | 0.557 ± 0.021 | 0.112 ± 0.0049 | 0.081 ± 0.019 | 2.67 | 1.47 | 3.15 | 1.2 | 1.1 | 3.15 | 2.38 | 3.48 | 3.52
13 | CAL72 BONE | 1.009 ± 0.006 | 1 ± 0.018 | 0.998 ± 0.049 | 0.966 ± 0.058 | 1 ± 0.038 | 0.98 ± 0.028 | 0.893 ± 0.048 | 0.861 ± 0.082 | 2.9 | 0.96 | 3.69 | 1.67 | 1.02 | 3.5 | 3.22 | 3.49 | 3.49
14 | HCC38 BREAST | 0.958 ± 0.13 | 0.883 ± 0.083 | 1.06 ± 0.09 | 0.902 ± 0.12 | 1.1 ± 0.19 | 1.12 ± 0.019 | 1.16 ± 0.14 | 1.07 ± 0.24 | 2.71 | 0.609 | 3.95 | 1.16 | 1.05 | 3.99 | 3.25 | 4.1 | 3.4
15 | SUM149.B1*.S BREAST | 0.935 ± 0.025 | 0.927 ± 0.032 | 0.92 ± 0.041 | 0.926 ± 0.025 | 0.974 ± 0.037 | 0.947 ± 0.004 | 0.943 ± 0.032 | 0.888 ± 0.057 | 3.06 | 1.21 | 3.76 | – | 1.66 | 3.6 | 2.99 | 3.73 | 3.85
16 | SUM44 BREAST | 0.844 ± 0.044 | 0.878 ± 0.1 | 0.948 ± 0.047 | 0.8813 ± 0.0072 | 1.01 ± 0.17 | 0.965 ± 0.14 | 0.887 ± 0.18 | 0.862 ± 0.13 | 3.75 | 1.04 | 3.41 | 2.82 | 2.05 | 4.14 | – | 4.41 | 3.73
17 | 22RV1 PROSTATE | 0.9557 ± 0.009 | 1 ± 0.097 | 0.934 ± 0.11 | 1.01 ± 0.18 | 0.902 ± 0.049 | 0.928 ± 0.077 | 0.911 ± 0.14 | 0.803 ± 0.11 | 2.6 | 0.962 | 3.53 | 1.47 | 1.58 | 3.34 | 3.1 | – | 3.48
